PubChem BioAssay AID2060882 (Molecular Pharmacology Branch, DTP, NCI, 2025)
pIC50: −log10 of the molar value.

System: 898857-211-R-J1-PDC complex spheroids, growth % test/control
Test: Anticancer human tumor 898857-211-R-J1-PDC patient-derived melanoma cell line growth inhibition [RAS]
Conditions: for pIC50: curve of first compound; for viability, T/C: stronger effect = lower value
Method in brief: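 Agents were tested in combination matrices in half-log decrements from a top concentration at or near clinical Cmax (10 microM if undetermined). Targets were multi-cell spheroids of tumour lines plus HUVEC and MSC stromal cells.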

[1] = second compound 0.000949 µM, first compound 0.0316 µM
[2] = second compound 0.000949 µM, first compound 0.1 µM
[3] = second compound 0.000949 µM, first compound 0.316 µM
[4] = second compound 0.000949 µM, first compound 1 µM
[5] = second compound 0.000949 µM, first compound 3.16 µM
[6] = second compound 0.000949 µM, first compound 10 µM
[7] = second compound 0.003 µM, first compound 0.0316 µM
[8] = second compound 0.003 µM, first compound 0.1 µM
[9] = second compound 0.003 µM, first compound 0.316 µM
[10] = second compound 0.003 µM, first compound 1 µM
[11] = second compound 0.003 µM, first compound 3.16 µM
[12] = second compound 0.003 µM, first compound 10 µM
[13] = second compound 0.00949 µM, first compound 0.0316 µM
[14] = second compound 0.00949 µM, first compound 0.1 µM
[15] = second compound 0.00949 µM, first compound 0.316 µM
[16] = second compound 0.00949 µM, first compound 1 µM
[17] = second compound 0.00949 µM, first compound 3.16 µM
[18] = second compound 0.00949 µM, first compound 10 µM
[19] = second compound 0.03 µM, first compound 0.0316 µM
[20] = second compound 0.03 µM, first compound 0.1 µM
[21] = second compound 0.03 µM, first compound 0.316 µM
[22] = second compound 0.03 µM, first compound 1 µM
[23] = second compound 0.03 µM, first compound 3.16 µM
[24] = second compound 0.03 µM, first compound 10 µM
[25] = second compound 0.0949 µM, first compound 0.0316 µM
[26] = second compound 0.0949 µM, first compound 0.1 µM
[27] = second compound 0.0949 µM, first compound 0.316 µM
[28] = second compound 0.0949 µM, first compound 1 µM
[29] = second compound 0.0949 µM, first compound 3.16 µM
[30] = second compound 0.0949 µM, first compound 10 µM
[31] = second compound 0.3 µM, first compound 0.0316 µM
[32] = second compound 0.3 µM, first compound 0.1 µM
[33] = second compound 0.3 µM, first compound 0.316 µM
[34] = second compound 0.3 µM, first compound 1 µM
[35] = second compound 0.3 µM, first compound 3.16 µM
[36] = second compound 0.3 µM, first compound 10 µM
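Also: spheroids exposed to compound for seven days before readout.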
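For viability, T/C in this document: 100% = DMSO vehicle control wells.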

SMILES: CC(C)NCC(C(=O)N1CCN(c2ncnc3c2C(C)CC3O)CC1)c1ccc(Cl)cc1 (stereo unspecified) + CCn1c(-c2cc(N3CCN(C)CC3)cnc2C(C)OC)c2c3cc(ccc31)-c1csc(n1)CC(NC(=O)C1CC1C)C(=O)N1CCCC(N1)C(=O)OCC(C)(C)C2
- pIC50 (second compound 0.000949 µM): < 5.00
- pIC50 (second compound 0.003 µM): 5.12
- pIC50 (second compound 0.00949 µM): 5.11
- pIC50 (second compound 0.03 µM): 5.20
- pIC50 (second compound 0.0949 µM): 5.09
- pIC50 (second compound 0.3 µM): 5.21
- viability, T/C [1]: 105%
- viability, T/C [2]: 105%
- viability, T/C [3]: 103%
- viability, T/C [4]: 76.7%
- viability, T/C [5]: 58.6%
- viability, T/C [6]: 50.5%
- viability, T/C [7]: 102%
- viability, T/C [8]: 106%
- viability, T/C [9]: 93.5%
- viability, T/C [10]: 82.1%
- viability, T/C [11]: 63.3%
- viability, T/C [12]: 45.6%
- viability, T/C [13]: 85.4%
- viability, T/C [14]: 101%
- viability, T/C [15]: 82%
- viability, T/C [16]: 82%
- viability, T/C [17]: 61.4%
- viability, T/C [18]: 46.6%
- viability, T/C [19]: 94%
- viability, T/C [20]: 109%
- viability, T/C [21]: 96%
- viability, T/C [22]: 75.7%
- viability, T/C [23]: 61.2%
- viability, T/C [24]: 43.5%
- viability, T/C [25]: 99.4%
- viability, T/C [26]: 107%
- viability, T/C [27]: 104%
- viability, T/C [28]: 79.6%
- viability, T/C [29]: 69.1%
- viability, T/C [30]: 45.6%
- viability, T/C [31]: 99.9%
- viability, T/C [32]: 97.2%
- viability, T/C [33]: 86.2%
- viability, T/C [34]: 91.8%
- viability, T/C [35]: 63.9%
- viability, T/C [36]: 39.8%

SMILES: CC(C)n1nc(-c2ccc3oc(N)nc3c2)c2c(N)ncnc21 + CCn1c(-c2cc(N3CCN(C)CC3)cnc2C(C)OC)c2c3cc(ccc31)-c1csc(n1)CC(NC(=O)C1CC1C)C(=O)N1CCCC(N1)C(=O)OCC(C)(C)C2
- pIC50 (second compound 0.000949 µM): 7.69
- pIC50 (second compound 0.003 µM): 7.71
- pIC50 (second compound 0.00949 µM): 7.76
- pIC50 (second compound 0.03 µM): 7.86
- pIC50 (second compound 0.0949 µM): 7.74
- pIC50 (second compound 0.3 µM): 7.83
- viability, T/C (second compound 0.000949 µM, first compound 0.000316 µM): 98%
- viability, T/C (second compound 0.000949 µM, first compound 0.001 µM): 82.6%
- viability, T/C (second compound 0.000949 µM, first compound 0.00316 µM): 89.9%
- viability, T/C (second compound 0.000949 µM, first compound 0.01 µM): 63.3%
- viability, T/C [1]: 41.1%
- viability, T/C [2]: 16.7%
- viability, T/C (second compound 0.003 µM, first compound 0.000316 µM): 100%
- viability, T/C (second compound 0.003 µM, first compound 0.001 µM): 92.8%
- viability, T/C (second compound 0.003 µM, first compound 0.00316 µM): 86.5%
- viability, T/C (second compound 0.003 µM, first compound 0.01 µM): 69.3%
- viability, T/C [7]: 35.6%
- viability, T/C [8]: 14.1%
- viability, T/C (second compound 0.00949 µM, first compound 0.000316 µM): 92%
- viability, T/C (second compound 0.00949 µM, first compound 0.001 µM): 88.3%
- viability, T/C (second compound 0.00949 µM, first compound 0.00316 µM): 80.2%
- viability, T/C (second compound 0.00949 µM, first compound 0.01 µM): 63.5%
- viability, T/C [13]: 35.4%
- viability, T/C [14]: 15.7%
- viability, T/C (second compound 0.03 µM, first compound 0.000316 µM): 97.4%
- viability, T/C (second compound 0.03 µM, first compound 0.001 µM): 91.8%
- viability, T/C (second compound 0.03 µM, first compound 0.00316 µM): 69.5%
- viability, T/C (second compound 0.03 µM, first compound 0.01 µM): 57%
- viability, T/C [19]: 35.2%
- viability, T/C [20]: 12.4%
- viability, T/C (second compound 0.0949 µM, first compound 0.000316 µM): 109%
- viability, T/C (second compound 0.0949 µM, first compound 0.001 µM): 108%
- viability, T/C (second compound 0.0949 µM, first compound 0.00316 µM): 79.5%
- viability, T/C (second compound 0.0949 µM, first compound 0.01 µM): 64.6%
- viability, T/C [25]: 38.5%
- viability, T/C [26]: 15.1%
- viability, T/C (second compound 0.3 µM, first compound 0.000316 µM): 103%
- viability, T/C (second compound 0.3 µM, first compound 0.001 µM): 100%
- viability, T/C (second compound 0.3 µM, first compound 0.00316 µM): 69.2%
- viability, T/C (second compound 0.3 µM, first compound 0.01 µM): 56.2%
- viability, T/C [31]: 40.2%
- viability, T/C [32]: 12.7%

SMILES: C[C@@H](NC(=O)c1ncnc(N)c1Cl)c1ncc(C(=O)Nc2cc(C(F)(F)F)c(Cl)cn2)s1 + CCn1c(-c2cc(N3CCN(C)CC3)cnc2C(C)OC)c2c3cc(ccc31)-c1csc(n1)CC(NC(=O)C1CC1C)C(=O)N1CCCC(N1)C(=O)OCC(C)(C)C2
- pIC50 (second compound 0.000949 µM): 5.77
- pIC50 (second compound 0.003 µM): 5.87
- pIC50 (second compound 0.00949 µM): 5.89
- pIC50 (second compound 0.03 µM): 5.96
- pIC50 (second compound 0.0949 µM): 5.87
- pIC50 (second compound 0.3 µM): 5.94
- viability, T/C [1]: 131%
- viability, T/C [2]: 98.4%
- viability, T/C [3]: 85%
- viability, T/C [4]: 59.8%
- viability, T/C [5]: 38.7%
- viability, T/C [6]: 20%
- viability, T/C [7]: 106%
- viability, T/C [8]: 109%
- viability, T/C [9]: 71%
- viability, T/C [10]: 55.2%
- viability, T/C [11]: 40.7%
- viability, T/C [12]: 22%
- viability, T/C [13]: 107%
- viability, T/C [14]: 99.5%
- viability, T/C [15]: 83.6%
- viability, T/C [16]: 53.7%
- viability, T/C [17]: 33.9%
- viability, T/C [18]: 21.2%
- viability, T/C [19]: 107%
- viability, T/C [20]: 99.3%
- viability, T/C [21]: 78.8%
- viability, T/C [22]: 50.3%
- viability, T/C [23]: 33.4%
- viability, T/C [24]: 21.7%
- viability, T/C [25]: 121%
- viability, T/C [26]: 106%
- viability, T/C [27]: 72.6%
- viability, T/C [28]: 52.2%
- viability, T/C [29]: 38%
- viability, T/C [30]: 19.6%
- viability, T/C [31]: 108%
- viability, T/C [32]: 87.5%
- viability, T/C [33]: 65.9%
- viability, T/C [34]: 56.8%
- viability, T/C [35]: 33.6%
- viability, T/C [36]: 16.9%
